Source: US10556865B2, “Synergistic herbicidal composition containing certain pyridine or pyrimidine carboxylic acids and certain cereal and rice herbicides” (Dow AgroSciences, LLC, priority 2007, dated 2020)
“And” between values parts separate entries of the source, which are not always exact repeats. Identical values can stand only once.

Assays:
Format in all cases: in vivo
[1] = tested on: Polygonum pensylvanicum L. (POLPY); assay: Postemergence herbicidal mixtures for weed control in direct seeded rice (greenhouse, visual % injury)
[2] = tested on: Leptochloa chinensis (L.) NEES (LEFCH); assay: as above
Cyperus iria L. (CYPIR) = assay: as above
[3] = tested on: Polygonum persicaria L. (POLPE); assay: as above
[4] = tested on: Ischaemum rugosum SALISB. (ISCRU); assay: as above; settings: for % Injury Ob: ISCRU
[5] = tested on: Cyperus esculentus L. (CYPES); assay: as above
[6] = tested on: Scirpus maritimus L. (SCPMA); assay: as above
[7] = tested on: Ipomoea hederacea (L.) JACQ. (IPOHE); assay: Postemergence herbicidal mixtures for weed control in direct seeded rice (greenhouse, visual % injury after 3 weeks)
[8] = tested on: blackgrass (Alopecurus myosuroides L; ALOMY); assay: Postemergence herbicidal activity of mixtures in cereal crops (greenhouse, visual injury 0-100 percent after 20-22 days); settings: 2.5 g/ha
Method: Seeds of the desired test plant species were planted in Sun Gro MetroMix® 306 planting mixture, which typically has a pH of 6.0 to 6.8 and an organic matter content of about 30 percent, in plastic pots with a surface area of 103.2 square centimeters (cm^2). […] The plants were grown for 7-36 days in a greenhouse with an approximate 14 hour photoperiod which was maintained at about 18° C. during the day and 17° C. during the night. Nutrients and water were added on a regular basis and supplemental lighting was provided with overhead metal halide 1000-Watt lamps as necessary. The plants were employed for testing when they reached the second or third true leaf stage.
Treatments consisted of compound (as listed in Tables 1 through 64) and a second cereal herbicide alone and in combination. […] The concentrated stock solutions were diluted to 1.5 mg ai/mL with the addition of 2 volumes of an aqueous mixture containing acetone, water, isopropyl alcohol, DMSO, Agri-dex crop oil concentrate, and Triton® X-77 surfactant in a 64.7:26.0:6.7:2.0:0.7:0.01 v/v ratio. A dilution solution was prepared by mixing 1 volume of 97:3 v/v acetone/DMSO and 2 volumes of an aqueous mixture containing acetone, water, isopropyl alcohol, DMSO, Agri-dex crop oil concentrate, and Triton® X-77 surfactant in a 64.7:26.0:6.7:2.0:0.7:0.01 v/v ratio. Compound requirements are based upon a 12 mL application volume at a rate of 187 liters per hectare (L/ha). […] Formulated compounds were applied to the plant material with an overhead Mandel track sprayer equipped with 8002E nozzles calibrated to deliver 187 L/ha over an application area of 0.503 square meters (m^2) at a spray height of 18 inches […] above average plant canopy. Control plants were sprayed in the same manner with the solvent blank.
The treated plants and control plants were placed in a greenhouse as described above and watered by sub-irrigation to prevent wash-off of the test compounds. After 20-22 days, the condition of the test plants as compared with that of the control plants was determined visually and scored on a scale of 0 to 100 percent where 0 corresponds to no injury and 100 corresponds to complete kill.
Colby's equation was used to determine the herbicidal effects expected from the mixtures (Colby, S. R. 1967. Calculation of the synergistic and antagonistic response of herbicide combinations. Weeds 15:20-22.).
The following equation was used to calculate the expected activity of mixtures containing two active ingredients, A and B: Expected=A+B−(A×B/100)

[9] = tested on: Canada thistle (Cirsium arvense L; CIRAR); assay: Postemergence herbicidal activity of mixtures in cereal crops (greenhouse, visual injury); settings: 3.75 g/ha
In short: (§1)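 Weeds grown in greenhouse (~14 h photoperiod, ~18/17 °C day/night) to second–third true leaf stage, sprayed postemergence with compound and second cereal herbicide alone or combined; solvent-blank controls. Injury scored visually after 20-22 days, 0–100% (complete kill); expected mixture activity = A+B−(A×B/100).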

[10] = tested on: wild oats (Avena fatua L; AVEFA); assay: as above; settings: 2.5 g/ha, Table 14
In short: (§2)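 Plants at second-third true leaf stage sprayed postemergence at 187 L/ha with compound and second cereal herbicide alone and combined; solvent blank controls. Visual injury scored 0-100% versus controls after 20-22 days; expected mixture effects by Colby's equation.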

[11] = tested on: windgrass (Apera spica-venti L; APESV); assay: as above; settings: Apera spica-venti, post-emergence, 2.5 g/ha, Table 14; read-out: APESV Ob
In short: as §2

[12] = tested on: green foxtail (Setaria viridis L; SETVI); assay: as above; settings: 2.5 g/ha, Table 7
In short: (§3)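 Injury ratings (0–100%) taken 20–22 days post-spray versus solvent-blank controls. Treatment: 187 L/ha track spray, 2nd–3rd leaf plants, Compound A/B with second cereal herbicide.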

[13] = tested on: Italian ryegrass (Lolium multiflorum L; LOLMU); assay: as above; settings: 2.5 g/ha, Table 14
In short: as §3

[14] = tested on: Fimbristylis miliacea (L.) VAHL (FIMMI); assay: Postemergence herbicidal mixtures for weed control in direct seeded rice (greenhouse, visual % injury); settings: FIMMI
[15] = tested on: Brachiaria platyphylla (BRISEB.) NASH (BRAPP); assay: as above
[16] = tested on: bird's-eye speedwell (Veronica persica L; VERPE); assay: Postemergence herbicidal activity of mixtures in cereal crops (greenhouse, visual injury); settings: 70 g/ha alone
In short: as §1

[17] = tested on: wild pansy (Viola tricolor L; VIOTR); assay: as above; settings: 70 g/ha alone
In short: as §1

[18] = tested on: wild buckwheat (Polygonum convolvulus L; POLCO); assay: as above; settings: 70 g/ha alone
In short: as §3

[19] = tested on: lady's-thumb (Polygonum persicaria L; POLPE); assay: as above; settings: 70 g/ha alone
In short: as §3

[20] = tested on: chickweed (Stellaria media L; STEME); assay: as above; settings: 70 g/ha alone
In short: as §3

Cyperus species (CYPSS) = assay: Herbicidal mixtures for weed control in transplanted paddy rice (in-water application, visual % injury); settings: CYPES = Cyperus esculentus
Method: Weed seeds or nutlets of the desired test plant species were planted in puddled soil (mud) prepared by mixing a non-sterilized mineral soil (28 percent silt, 18 percent clay, and 54 percent sand, with a pH of about 7.3 to 7.8 and an organic matter content of about 1.0 percent) and water at a ratio of 100 kilograms (kg) of soil to 19 L of water. The prepared mud was dispensed in 250 mL aliquots into 480 mL non-perforated plastic pots with a surface area of 91.6 square centimeters leaving a headspace of 3 centimeters in each pot. Rice seeds were planted in Sun Gro MetroMix® 306 planting mixture, which typically has a pH of 6.0 to 6.8 and an organic matter content of about 30 percent, in plastic plug trays. Seedlings at the second or third leaf stage of growth were transplanted into 650 mL of mud contained in 960 mL non-perforated plastic pots with a surface area of 91.6 cm^2 4 days prior to herbicide application. The paddy was created by filling the 3 centimeter headspace of the pots with water. When required to ensure good germination and healthy plants, a fungicide treatment and/or other chemical or physical treatment was applied. The plants were grown for 4-14 days in a greenhouse with an approximate 14 hr photoperiod which was maintained at about 29° C. during the day and 26° C. during the night. Nutrients were added as Osmocote (17:6:10, N:P:K+minor nutrients) at 2 g per cup. Water was added on a regular basis to maintain the paddy flood, and supplemental lighting was provided with overhead metal halide 1000-Watt lamps as necessary. The plants were employed for testing when they reached the second or third true leaf stage.
Treatments consisted of esters or salts of compound A, compound C, or compound D and various herbicidal components alone and in combination. For technical grade compounds, a weighed amount, determined by the highest rate to be tested, was placed in an individual 120 mL glass vial and was dissolved in 20 mL of acetone to obtain concentrated stock solutions. […] The concentrated stock solutions obtained were diluted with 20 mL of an aqueous mixture containing 2.5% Agri-dex crop oil concentrate (v/v). For formulated compounds, a measured amount, determined by the highest rate to be tested, was placed in an individual 120 mL glass vial and was dissolved in 20 mL of 2.5% (v/v) Agri-dex crop oil concentrate to obtain concentrated stock solutions. The concentrated stock solutions obtained were diluted with 20 mL of acetone. Applications were made by injecting an appropriate amount of the stock solution into the aqueous layer of the paddy. Control plants were treated in the same manner with the solvent blank. All treated plant material received the same concentration of acetone and crop oil concentrate.
Forms of compounds A, C, and D were applied on an acid equivalent basis. Other herbicidal components were applied on an active ingredient basis and included acetolactate synthase (ALS)-inhibiting herbicides penoxsulam (triazolopyrimidine chemical class) applied as Grasp SC, […] (sulfonylurea chemical class) applied as Sirius G, and bensulfuron-methyl (sulfonylurea chemical class) applied as Londax; acetyl CoA carboxylase (ACCase) inhibiting herbicides cyhalofop-butyl applied as Clincher G and fenoxaprop-p-ethyl applied as Ricestar HT; auxinic herbicide quinclorac applied as Facet 75 DF; phytoene desaturase inhibiting herbicide norflurazon; and p-hydroxyphenylpyruvate dioxygenase (HPPD) inhibiting herbicide sulcotrione applied as Mikado.
The treated plants and control plants were placed in a greenhouse as described above and water was added as needed to maintain a paddy flood. After 3 weeks the condition of the test plants as compared with that of the untreated plants was determined visually and scored on a scale of 0 to 100 percent where 0 corresponds to no injury and 100 corresponds to complete kill.

In the case of `CCCCOC(=O)c1nc(-c2ccc(Cl)c(OC)c2F)cc(N)c1Cl` [Compound A n-Butyl], the “% Injury POLPY Ob” value ([1]; alone 8.75 g/ha) is reported as 40%, the “% Injury POLPY Ob” value ([1]; alone 17.5 g/ha) is reported as 90% and the “% Injury LEFCH Ob” value ([2]; alone 8.75 g/ha) is reported as 10%. The “% Injury LEFCH Ob” value ([2]; alone 17.5 g/ha) was 30%, the “% Injury LEFCH Ob” value ([2]; alone 35 g/ha) was 60% and the “% Injury at 11 DAA CYPIR Ob” value (Cyperus iria L. (CYPIR); alone 35 g/ha) was 60%. The “% Injury at 11 DAA CYPIR Ob” value (Cyperus iria L. (CYPIR); alone 70 g/ha) was 90%, the “% Injury at 21 DAA CYPIR Ob” value (Cyperus iria L. (CYPIR); alone 35 g/ha) was 60% and the “% Injury at 21 DAA CYPIR Ob” value (Cyperus iria L. (CYPIR); alone 70 g/ha) was 100%. For the same compound, the “% Injury POLPE Ob” value ([3]; alone 4.38 g/ha) was 40%, the “% Injury POLPE Ob” value ([3]; alone 8.75 g/ha) was 60% and the “% Injury ISCRU Ob” value ([4]; alone 35 g/ha) was 20%. For the same compound, the “% Injury ISCRU Ob” value ([4]; alone 70 g/ha) was 50%, the “% Injury 11 DAA CYPES Ob” value ([5]; alone 35 g/ha) was 50% and the “% Injury 11 DAA CYPES Ob” value ([5]; alone 70 g/ha) was 75%. The “% Injury 21 DAA CYPES Ob” value ([5]; alone 35 g/ha) was 90%, the “% Injury 21 DAA CYPES Ob” value ([5]; alone 70 g/ha) was 100% and the “% Injury CYPES Ob” value ([5]; alone 8.75 g/ha) was 50%. For the same compound, the “% Injury CYPES Ob” value ([5]; alone 17.5 g/ha) was 85% and 90%, the “% Injury at 11 DAA SCPMA Ob” value ([6]; alone 35 g/ha) was 30% and the “% Injury at 11 DAA SCPMA Ob” value ([6]; alone 70 g/ha) was 100%. For the same compound, the “% Injury at 21 DAA SCPMA Ob” value ([6]; alone 35 g/ha) was 50%, the “% Injury at 21 DAA SCPMA Ob” value ([6]; alone 70 g/ha) was 100% and the “% Injury IPOHE Ob” value ([7]; alone 8.75 g/ha) was 35%. For the same compound, the “% Injury IPOHE Ob” value ([7]; alone 17.5 g/ha) was 30%.

For `COc1nc(C)nc(NC(=O)NS(=O)(=O)c2cc(I)ccc2C(=O)O)n1` [Iodosulfuron, 4-iodo-2-[[[[(4-methoxy-6-methyl-1,3,5-triazin-2-yl)amino]carbonyl]amino]sulfonyl]benzoic acid, reference compound], the “ALOMY Ob” value ([8]; Table 7) was 50%, the “ALOMY Ob” value ([8]; Table 14) was 50% and the “CIRAR Ob” value [9] was 50%. The “AVEFA Ob” value [10] was 35%, the pest or weed control at 2.5 g/ha [11] was 68% and the “SETVI Ob” value [12] was 0%. The “LOLMU Ob” value [13] was 53%.

`CCCCC(CC)COC(=O)COc1ccc(Cl)cc1C` (centres unmarked) [MCPA EHE] was tested, and the “% Injury Ob” value ([14]; 70 g/ha alone) was 0%, the “% Injury Ob” value ([14]; 140 g/ha alone) was 0% and the “% Injury Ob” value ([15]; 70 g/ha alone) was 0%. The “% Injury Ob” value ([15]; 140 g/ha alone) was 0%, the “% Injury Ob” value ([4]; 70 g/ha alone) was 0% and the “% Injury Ob” value ([4]; 140 g/ha alone) was 0%.

In the case of `Cc1cc(Cl)ccc1OCC(=O)O` [MCPA], the “VERPE Ob” value [16] is reported as 10%, the “VIOTR Ob” value [17] is reported as 17% and the “POLCO Ob” value [18] is reported as 7%. The “POLPE Ob” value [19] was 23% and the “STEME Ob” value [20] was 7%.

`CNc1cnn(-c2cccc(C(F)(F)F)c2)c(=O)c1Cl` [Norflurazon] was tested, and the “% Injury CYPES Ob” value (Cyperus species (CYPSS); Norflurazon 70 g/ha alone (Compound A Methyl half)) was 0%, the “% Injury CYPES Ob” value (Cyperus species (CYPSS); Norflurazon 70 g/ha alone (Compound A TEA half)) was 0% and the “% Injury Ob” value ([14]; 560 g/ha alone) was 0%. For the same compound, the “% Injury Ob” value ([15]; 70 g/ha alone) was 0%, the “% Injury Ob” value (Cyperus iria L. (CYPIR); CYPIR, 560 g/ha alone) was 0% and the “% Injury Ob” value ([5]; CYPES, 560 g/ha alone) was 0%. For the same compound, the “% Injury Ob” value ([6]; SCPMA, 560 g/ha alone) was 60%.
